Assay results taken from patent publication US8067582B2 (Bristol-Myers Squibb Company, priority 2007, dated 2011).
Read-outs that look alike come from different tables or passages of the source.

Tests used:
endogenous wild type AR = details: read-out: Kd for [3H]-DHT; MDA-MB-453 cells, saturation analysis, Scatchard
Protocol: For the whole cell binding assay, human breast adenocarcinoma MDA-MB-453 cells (American Type Culture Collection, Rockville, Md., ATCC #: HTB-131), expressing a functional endogenous wild type AR, are grown to near confluency in T-225 tissue culture flasks containing Dulbecco's Modified Eagle Medium (DMEM) (Mediatech CAT #45000-668) supplemented with 10% fetal bovine serum (FBS) (Invitrogen/GIBCO Life Science). In order to remove any endogenous ligand that might be complexed with the receptor in the cells, the tissue culture media is removed and the cells are incubated overnight at 37° C. in serum-free DMEM. […] After the remaining media is removed, cells are washed three times with PBS and harvested onto UniFilter GF/B plates (PerkinElmer).
Two replicates are used for each sample. After 90 minutes at room temperature, cells are harvested by filtering through a GF/B filter plate (PerkinElmer) followed by washing with ice-cold 1×PBS (without calcium and magnesium) to remove unbound label. […] After correcting for non-specific binding, IC50 values are determined. The IC50 value is defined as the concentration of competing ligand needed to reduce specific binding by 50%. […] The Ki values are determined by application of the Cheng-Prusoff equation to the IC50 values where: […]

androgen receptor (AR) = target: T1, androgen receptor (AR) (Homo sapiens, UniProt P10275); test: MDA-MB-453 Androgen Receptor Transactivation Assay (PSA-Luc reporter, 3 nM DHT); format: cell-based; details: MDA-MB-453 cells, antagonism in presence of 3 nM DHT, 48 hour incubation
T1 sequence (P10275 1-920): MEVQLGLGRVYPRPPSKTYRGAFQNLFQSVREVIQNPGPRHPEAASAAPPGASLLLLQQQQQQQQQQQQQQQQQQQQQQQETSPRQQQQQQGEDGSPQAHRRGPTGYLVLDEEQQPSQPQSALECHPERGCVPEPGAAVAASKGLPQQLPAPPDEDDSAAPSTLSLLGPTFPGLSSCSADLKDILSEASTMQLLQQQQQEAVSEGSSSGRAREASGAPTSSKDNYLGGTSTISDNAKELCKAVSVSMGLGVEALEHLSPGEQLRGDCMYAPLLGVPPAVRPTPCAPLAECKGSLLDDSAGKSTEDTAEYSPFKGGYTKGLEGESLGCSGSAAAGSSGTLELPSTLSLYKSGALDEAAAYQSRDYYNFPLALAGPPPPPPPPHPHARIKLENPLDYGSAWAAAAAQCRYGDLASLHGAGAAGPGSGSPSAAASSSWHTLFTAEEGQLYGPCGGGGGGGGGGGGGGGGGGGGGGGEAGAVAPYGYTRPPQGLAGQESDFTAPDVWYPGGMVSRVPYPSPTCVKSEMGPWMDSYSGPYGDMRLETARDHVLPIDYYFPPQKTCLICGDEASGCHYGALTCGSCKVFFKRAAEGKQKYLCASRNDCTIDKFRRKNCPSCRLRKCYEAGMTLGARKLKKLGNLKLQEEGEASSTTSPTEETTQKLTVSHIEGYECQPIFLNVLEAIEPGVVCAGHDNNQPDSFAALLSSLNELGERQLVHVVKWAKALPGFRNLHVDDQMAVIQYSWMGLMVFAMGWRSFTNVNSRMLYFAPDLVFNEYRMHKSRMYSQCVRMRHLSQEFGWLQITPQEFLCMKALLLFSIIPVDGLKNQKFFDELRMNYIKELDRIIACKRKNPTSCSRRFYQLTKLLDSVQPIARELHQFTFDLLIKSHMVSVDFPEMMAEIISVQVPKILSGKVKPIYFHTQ

[1] = tested on: immature castrated male rats; test: Immature Rat Prostate Weight (IRPW) Assay; format: in vivo, rat (Sprague-Dawley); details: Rattus norvegicus, 96 h, read-out: IRPW SV/FB (% control)

| SMILES | Kd (endogenous wild type AR) [nM] | IC50 (androgen receptor (AR)) [nM] | response vs control in vivo at 3 mg/kg ([1]; po) [%] | IC50 (androgen receptor (AR); read-out: IC50) [nM] | response vs control in vivo at 3 mg/kg ([1]; immature castrated rats, 3 mpk PO QD × 4 days) [%] |
| --- | --- | --- | --- | --- | --- |
| C[C@]12CCC(=O)C[C@@H]1CC[C@@H]1[C@@H]2CC[C@]2(C)[C@@H](O)CC[C@@H]12 [[^3H]-DHT, tritiated dihydrotestosterone] | 0.4 | – | – | – | – |
| C[C@@]12C[C@@H](O)[C@]3(CCO[C@H]4[C@@H]3[C@@H]1C(=O)N4c1ccc(C#N)c(C(F)(F)F)c1)O2 [Example 6, 4-((1R,2R,4R,5S,8S,12R)-2-hydroxy-4-methyl-6-oxo-9,13-dioxa-7-azatetracyclo[6.3.1.1^1,4.0^5,12]tridec-7-yl)-2-(trifluoromethyl)benzonitrile] | – | 281 | 37 | – | – |
| COC(=O)N[C@@H]1C[C@]23CCO[C@@H]4[C@H]2[C@@H](C(=O)N4c2ccc(C#N)c(C(F)(F)F)c2)[C@@]1(C)O3 [Example 14, Methyl ((1S,3R,4R,5R,8R,12S)-7-(4-cyano-3-(trifluoromethyl)phenyl)-4-methyl-6-oxo-9,13-dioxa-7-azatetracyclo[6.3.1.1^1,4.0^5,12]tridec-3-yl)carbamate] | – | 185 | 35 | – | – |
| COC(=O)N[C@@H]1C[C@@]23CCO[C@H]4[C@@H]2[C@H](C(=O)N4c2cc(Cl)c(C#N)c(Cl)c2)[C@]1(C)O3 [Example 208, Methyl ((1R,3R,4S,5S,8S,12R)-7-(3,5-dichloro-4-cyanophenyl)-4-methyl-6-oxo-9,13-dioxa-7-azatetracyclo[6.3.1.1^1,4.0^5,12]tridec-3-yl)carbamate] | – | 118 | 37 | – | – |
| COC(=O)N[C@H]1C[C@@]23CCO[C@H]4[C@@H]2[C@H](C(=O)N4c2ccc(Cl)c(C(F)(F)F)c2)[C@]1(C)O3 [Example 291, Methyl ((1R,3S,4S,5S,8S,12R)-7-(4-chloro-3-(trifluoromethyl)phenyl)-4-methyl-6-oxo-9,13-dioxa-7-azatetracyclo[6.3.1.1^1,4.0^5,12]tridec-3-yl)carbamate] | – | – | – | 45 | 35 |
